{"source": "patent EP4480943A1", "about": "“NEW CLASS OF LIPIDS FOR DELIVERING ACTIVE INGREDIENTS INTO CELLS” (Oz Biosciences, priority 2023, dated 2024)", "key": {"[1]": {"test": "Size and charge of LNPs by DLS (Malvern NanoZS)", "type": "physicochemical", "conditions": "N/P 6", "protocol": "Thin layer chromatographies (TLC) are carried out on aluminium plates covered with silica gel 60 Fasa (Merck). […] The synthesized products are purified on chromatography columns on silica. The flash chromatography separations are carried out on silica gel 60 (230-400 mesh ASTM) (Merck). Particle size and zeta potential measurements: The mean hydrodynamic particle size and charge measurements were performed using Dynamic Light Scattering (DLS) and Laser Doppler Velocimetry (LDV), respectively, using Malvern Nano ZS instrument and DTS software (Malvern Instruments, UK) in a water of Grade 2. Various amounts of cationic poloxamers were diluted in 100 µl of water and mixed with an equal volume of the same water containing DNA. The measurements were carried out in automatic mode and the results are presented as mean +/- SEM, n= 3. Each mean represents the average value of 30 measurements.\n(§1) The size and charge of the collected LNPs are determined using DLS (Malvern Instruments NanoZS) by dissolving 50 µL of the collected solution in 950 µL of MilliQ water. Then, formed LNPs are destabilized by adding 1% v/v of Triton X-100 and incubate at 30°C for 1h and vortexing. After disruption of the formulation, a 1/100 solution of SyBr™Gold in water is prepared, and 0.5µL of it added to 49.5µL of the resulting mixture that includes Triton X-100. The SyBr™Gold is also added the same way to 49.5µL of a solution that contains non-disrupted LNPs, and to 49.5µL of the mRNA mother solution. Fluorescence of each sample is then read after 30 min incubation at RT using a Victor (Perkin Elmer) fluorimeter (excitation: 495nm; emission: 537nm ;). The encapsulation efficiency (ee(%)) is easily obtained from these fluorescence measurements using the formula below: ee (%) = ((Fluo_LNP1v%triton−Fluo_LNP))/(Fluo_RNAstock solution) × 100 [formula]"}, "ovalbumin (OVA) antigen": {"tested_on": "ovalbumin (OVA) antigen", "test": "In vivo immunization with OVA mRNA LNPs, ELISA and Elispot", "conditions": "C57BL6J mice, s.c. prime boost (D0-14), 10µg mRNA", "text": "In this context, the emergence of vaccine-based LNPs represents a clear opportunity to reach pathologies impossible to fight with more classical vaccine approach. The tunable lipid presented in this document could envisioned as potent pillar for future nucleic acid-based vaccine, due to their ground-breaking features in term of efficiency and safe character. Thus, LNPs based on tunable lipids I and XIV have been formulated to encapsulate unmodified mRNA coding for the ovalbumin (OVA) antigen (OZ Biosciences, Cat: MRNA42-1000) and their physico-chemical properties determined (Table 4). Table 4: Main physical properties of mRNA(OVA) LNPs based on tunable lipids I and XIV.\nC57BL6J mice received a prime boost (D0-14) immunizations of OVA antigen delivered by mRNA-based LNPs or by recombinant protein (alone or adjuvanted with aluminium-based adjuvant). To characterize the immuno-phenotyping of the mice, the sera and splenocytes were collected at different time (D0, D14, D21, D28) and analysed by ELISA and Elispot. The mice were immunized by s.c (sub-cutaneous) route with 100µL per injection at 10µg OVA subunit and 10µg mRNA doses. Results are depicted in figures 51 and 52, mRNA-OVA LNP formulations are efficient at priming a strong humoral response upon sub-cutaneous prime boost injection (D0-14). Indeed, a strong antibody response was measured after prime boost immunization. […]"}, "firefly luciferase": {"tested_on": "firefly luciferase", "test": "Biodistribution study of Luciferase mRNA LNPs, RT-PCR of organs", "type": "in vivo", "conditions": "nude mice, i.p., 10µg RNA dose, RT-PCR 6 hours after injection", "protocol": "Biodistribution study involving tunable lipids-based LNPs (lipids I, VI, and XIV) has also been conducted in nude mice that were injected i.p. with Luciferase mRNA formulated into 3 different LNPs formulations at 10µg RNA dose to evaluate the nucleic acid delivery into various organs. The liver, lung, kidney and spleen were collected and analysed through RT-PCR 6 hours after injection. As observed previously, tunable lipids-based LNPs are appropriately efficient to allow the observation and quantitation of Luciferase protein in quantity 6 hours after i.p. injection."}, "[2]": {"test": "Encapsulation efficiency / loaded nucleic acid by SyBr Gold fluorescence after Triton X-100 disruption", "type": "physicochemical", "conditions": "N/P 6", "protocol": "as §1"}, "F-Luc mRNA expression": {"tested_on": "F-Luc mRNA expression", "test": "In vivo transfection of F-Luc mRNA using LNPs, bioluminescence (IVIS imaging)", "conditions": "nude mice, i.p., 10 µg mRNA", "text": "Lipids I, VI and XIV have been formulated into LNPs following the molar composition depicted before (Table 1). 5-methoxyuridine-modified mRNA encoding for Firefly Luciferase (OZ Biosciences, Cat: MRNA16-1000) has been entrapped into the LNP. […] Table 3: Main physical properties of mRNA(F-Luc) LNPs based on tunable lipids I, VI, XIV, and cationic lipid DOTAP\nOverall, all LNPs formulations display consistent physico-chemical properties, controlled and reproducible size, charge, polydispersity and encapsulation rate to be used in small animals. A dose equivalent to 10 µg of mRNA has been injected i.p. (intra-peritoneally) in nude mice using three different LNPs. Tunable lipids I and XIV and DOTAP-based LNPs have been selected. Bioluminescence has been monitored over time using IVIS imaging system. […] Indeed 3h post injection, luminescence could be observed in all animals at different proportions (Figure 50). Specifically, F-Luc mRNA expression was higher in mice that received LNPs based on tunable lipids, whereas expression was much lower when DOTAP is used."}, "[3]": {"conditions": "NTsiRNA-Cy5 LNPs, DiO Label N, total lipid 4.74 mM"}, "[4]": {"conditions": "NTsiRNA-Cy5 LNPs, DiO Label Y, total lipid 4.74 mM"}, "[5]": {"conditions": "mRNA(F-Luc) LNPs, total lipid 5 mM"}, "[6]": {"conditions": "mRNA(GFP) LNPs, total lipid 3.75 mM"}, "[7]": {"conditions": "mRNA(OVA) LNPs, total lipid 5 mM"}}}
{"smiles": "CCCCC/C=C\\C/C=C\\CCCCCCCCNC(=O)CCC(NC(=O)CCCN(C)C)C(=O)NCCCCCCCC/C=C\\C/C=C\\CCCCC", "note": "(stereo not shown) [XIV]", "values": [{"measurement": "PDI", "setting": "[1]; [3]", "value": 0.222}, {"measurement": "Size", "setting": "[1]; [3]", "value": 114, "unit": "nm"}, {"measurement": "Zeta", "setting": "[1]; [3]", "value": "+27 mV"}, {"measurement": "PDI", "setting": "[1]; [4]", "value": 0.198}, {"measurement": "Size", "setting": "[1]; [4]", "value": 106, "unit": "nm"}, {"measurement": "Zeta", "setting": "[1]; [4]", "value": -2.46, "unit": "mV"}, {"measurement": "PDI", "setting": "[1]; [5]", "value": 0.13}, {"measurement": "Size", "setting": "[1]; [5]", "value": 99, "unit": "nm"}, {"measurement": "Zeta", "setting": "[1]; [5]", "value": "+4.85 mV"}, {"measurement": "PDI", "setting": "[1]; [6]", "value": 0.186}, {"measurement": "Size", "setting": "[1]; [6]", "value": 115, "unit": "nm"}, {"measurement": "PDI", "setting": "[1]; [7]", "value": 0.149}, {"measurement": "Size", "setting": "[1]; [7]", "value": 131.7, "unit": "nm"}, {"measurement": "Zeta", "setting": "[1]; [7]", "value": -7.9, "unit": "mV"}, {"measurement": "immune response (initial response of IgG2c)", "setting": "ovalbumin (OVA) antigen", "value": "efficient in generating an immune response"}, {"measurement": "Luciferase gene expression in kidney", "setting": "firefly luciferase", "value": "most efficient between the three tested formulation"}, {"measurement": "Luciferase gene expression in lung", "setting": "firefly luciferase", "value": "highest rate of gene expression"}, {"measurement": "Encapsulation Efficiency", "setting": "[2]; [3]", "value": ">90", "unit": "%"}, {"measurement": "Loaded siRNA", "setting": "[2]; [3]", "value": 0.125, "unit": "ng/µL"}, {"measurement": "Encapsulation Efficiency", "setting": "[2]; [4]", "value": ">90", "unit": "%"}, {"measurement": "Loaded siRNA", "setting": "[2]; [4]", "value": 0.125, "unit": "ng/µL"}, {"measurement": "Encapsulation Efficiency", "setting": "[2]; [5]", "value": 87.5, "unit": "%"}, {"measurement": "Loaded RNA", "setting": "[2]; [5]", "value": 175, "unit": "ng/µL"}, {"measurement": "Encapsulation Efficiency", "setting": "[2]; [6]", "value": 91, "unit": "%"}, {"measurement": "Loaded RNA", "setting": "[2]; [6]", "value": 91, "unit": "ng/µL"}, {"measurement": "Encapsulation Efficiency", "setting": "[2]; [7]", "value": 94, "unit": "%"}, {"measurement": "Loaded RNA", "setting": "[2]; [7]", "value": 94, "unit": "ng/µL"}, {"measurement": "time of maximum bioluminescence signal post injection", "setting": "F-Luc mRNA expression", "value": 3, "unit": "h"}]}
